# Measured values: PMC10324063, “Comparative Saturation Binding Analysis of ^64Cu-Labeled Somatostatin Analogues Using Cell Homogenates and Intact Cells” (ACS Omega, 2023)
# Where two headings read alike, the source gives them in different places. Marks after values point to notes of the source that are not given here. Positions of bridges follow the written chain, without caps; N, C: chain ends. Non-standard residues stand in square brackets, D forms with d. Residues, ends and D or L forms follow the SMILES beside them. *: point of attachment. NODAGA = O=C(O)CN1CCN(CC(=O)O)CCN(C(CCC(=O)*)C(=O)O)CC1; dPhe(4-NHCONH2) = NC(=O)Nc1ccc(C[C@@H](N)C(=O)O)cc1; Dihydroorotyl(S) = O=C1C[C@@H](C(=O)*)NC(=O)N1; Phe(4-Cl) = N[C@@H](Cc1ccc(Cl)cc1)C(=O)O; Phe(4-NH2) = Nc1ccc(C[C@H](N)C(=O)O)cc1
# How the values were obtained:
# SST2 [1] = target: T1, SST2 (Mus musculus, UniProt P30875); experiment: Saturation binding of 64Cu-labeled radioligands to intact MPC cells (adherent); conditions: 1 h, 37 °C, mean (68% confidence interval) of one experiment in duplicate or triplicate
# T1 construct: endogenous in cells; host or cells: MPC (mouse pheochromocytoma) cells, passages 35-40
# Experimental: A number of 3 × 10^5 cells/cm^2 were seeded in collagen-coated 48-well microplates (CELLSTAR 48 Well Cell Culture Multiwell Plates, Polystyrene, Greiner bio-one, Item no. 677180) and grown for three days. For binding assays, cell culture medium was removed and replaced by fresh medium supplemented with the radioligand (Am = 25 MBq/nmol) at increasing final concentrations between 0.321 and 40 nM (final sample volume 0.2 mL). […] Samples were incubated for 60 min at 37 °C. Incubation was stopped by washing with ice-cold Dulbecco’s PBS. Cells were lysed with 0.1 M NaOH containing 1% (w/v) SDS. Activity was measured in cell homogenates and in a series of radioligand standards containing increasing molar amounts between 0.06 and 8 pmol using the gamma counter Wizard (PerkinElmer). […] Measurements for total binding were performed in triplicate, while measurements for nonspecific binding were performed in duplicates.
# Plots of “total binding” = f(radioligand) were analyzed by nonlinear regressions using the model of “one site—total, accounting for ligand depletion” as implemented in GraphPad Prism and Plots of “nonspecific binding” = f(radioligand) were analyzed by linear regressions. For the ligand depletion model, the term “NS” was constrained to the respective slopes obtained by the linear regressions. […]
# SST2 [2] = target: T1, SST2; experiment: Saturation binding of 64Cu-labeled radioligands to MPC cell homogenates; conditions: read-out: Kd, MPC cell homogenate
# Experimental: MPC cells (passages 35–40) were routinely cultured in collagen-coated flasks as described elsewhere[49] and harvested at 70–80% confluency in Dulbecco’s phosphate-buffered saline containing 2.0 mM ethylenediaminetetraacetic acid (EDTA) at 4 °C for 30 min. Cells were resuspended and frozen in fetal bovine serum containing 10% (v/v) DMSO and stored at −70 °C. After thawing, cells were washed and resuspended in ice-cold saturation assays buffer, pH 7.4, containing 50 mM Tris-HCl, 1 mM EDTA, 0.5 mM o-phenanthroline, and 0.1% (w/v) bovine serum albumin. Cells were homogenized in ice-cold saturation assay buffer supplemented with complete EDTA-free proteinase inhibitor (Roche, Basel Switzerland) using a Dounce homogenizer. Protein content of cell homogenates was measured at A280nm (setting 1 Abs = 1 mg/mL) using a nanodrop spectrophotometer (Thermo-Fisher Scientific).
# For the measurement of total binding, 0.155 mL of cell homogenates were incubated with radioligands (molar activity (Am) = 25 MBq/nmol) at increasing final concentrations between 0.625 and 40 nM (final sample volume 0.2 mL) in Polystyrene tubes (5 mL, round bottom, clear, Greiner bio-one, Item no. 115101). […] Activity bound to filters was measured using the gamma counter Wizard (PerkinElmer). Activity in a series of radioligand standards was measured at increasing molar amounts between 0.625 and 40 nM. […]
# MPC cells [3] = system: MPC cells; set-up: method as in Brandt et al.[16], Brandt et al.[17]; conditions: intact MPC cells, 20 nM radioligand, 1 h, 37 °C, acid wash glycine pH 2.8; previously published; ref Brandt et al.[16], Brandt et al.[17]; cited from earlier work
# [4] = Radioligand stability toward intact MPC cells under assay conditions; assay type: in vitro ADME, mouse; conditions: 40 nM radioligand, 37 °C, radio-HPLC of supernatant
# Description: (§1) Considering the aforementioned exposure of the radioligands to intracellular components in cell homogenates, a degradation by intracellular proteases could lead to reduced radioligand concentrations and thus apparently higher Kd values. While most of the serine and cysteine proteases might be inhibited by the used inhibitor cocktail during homogenization (see Materials and Methods), a residual proteolytic activity cannot be excluded. Therefore, for the two radioligands, [^64Cu]Cu-NODAGA-NES2-TATE and [^64Cu]Cu-NODAGA-NES5-TATE, the stability toward cell homogenates and intact cells under assay conditions were exemplarily examined (Figure S3 in the Supporting Information).
# (§2) Figure S3: Stability toward cell homogenate and intact cells
# (§3) [64Cu]Cu-NODAGA-NES2-TATE and [64Cu]Cu-NODAGA-NES5-TATE (40 nM) were incubated at 37°C under assay conditions in the presence of MPC cell homogenate or MPC intact cells. After 1 h, an aliquot (160 µL) was withdrawn, mixed with “Supersol” (320 µL), which consists of 20% ethanol, 0.5% Triton X-100, 5 mM EDTA, 0.5 mM o-phenanthroline, and 0.1% saponin. This was followed by centrifugation at 13,500 rpm for 3 min (Thermo Scientific Heraeus Fresco 21). The supernatant was analyzed by radio-HPLC.1, 2 […]
# (§4) (1 picture or pasted object on this page, not shown here)
# [5] = Radioligand stability toward MPC cell homogenate under assay conditions; assay type: in vitro ADME, mouse; conditions: 40 nM radioligand, 37 °C, radio-HPLC of supernatant
# Description: as §1, §2, §3, §4
# MPC cells [6] = experiment: Cell binding and uptake (acid wash) in MPC cells; assay type: cell-based, mouse; conditions: intact MPC cells, 20 nM radioligand, 1 h, 37 °C, acid wash 0.05 M glycine pH 2.8 for 5 min; nonspecific with 20 μM Acetyl-TATE; from mean values of one experiment in sextuplicate
# Experimental: MPC cells were seeded into collagen-coated 24-well microplates and cultivated for 4 days. All washing steps were performed using PBS containing 0.9 mM CaCl2 and 0.5 mM MgCl2. Total radioligand uptake was measured after incubation with the radioligand (Am = 30 GBq/μmol) at a final concentration of 20 nM in RPMI 1640 medium with GlutaMAX supplement (Thermo Fisher Scientific) for 1 h at 37 and 4 °C. Nonspecific binding was determined in the presence of 20 μM Acetyl-TATE. The uptake fraction was measured after acid wash of cell surface-bound radioligand with wash buffer containing 0.05 M glycine, pH 2.8, for 5 min. The activity of cell homogenates was measured using the γ counter Wizard (PerkinElmer). The protein content of cell homogenates was measured as described above.
# Nonspecific binding was determined in the presence of 20 µM Acetyl -TATE (radioligand concentration of 20 nM). Data shown in A and B are mean values (±SD) of one experiment, which was performed in sextuplicate. In C, the uptake fraction (“internalized” or not acid releasable radioligand, red bars in A, mean values) is expressed as percentage of specific total-bound radioligand (blue bars in A, mean values). The difference to 100% was assigned to “surface-bound” radioligand. For a better overview, the compound names were abbreviated. […]
# specific binding of radioligand
# Incubation at 37°C for 1 h […]
# T1 sequence (P30875 whole entry): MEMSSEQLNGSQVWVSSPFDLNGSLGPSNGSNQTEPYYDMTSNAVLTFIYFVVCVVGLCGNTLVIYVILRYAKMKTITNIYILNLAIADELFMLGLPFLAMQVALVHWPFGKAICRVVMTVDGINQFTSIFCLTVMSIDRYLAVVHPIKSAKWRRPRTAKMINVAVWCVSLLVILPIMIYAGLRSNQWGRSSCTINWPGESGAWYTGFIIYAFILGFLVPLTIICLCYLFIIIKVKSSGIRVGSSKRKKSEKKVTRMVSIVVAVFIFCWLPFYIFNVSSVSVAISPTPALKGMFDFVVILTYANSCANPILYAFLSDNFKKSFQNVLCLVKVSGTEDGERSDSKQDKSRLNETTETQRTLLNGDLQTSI
structure (smiles),measurement,setting,value
C[C@@H](O)[C@@H]1NC(=O)[C@H](CCCCN)NC(=O)[C@@H](Cc2ccc(NC(N)=O)cc2)NC(=O)[C@H](Cc2ccc(NC(=O)[C@@H]3CC(=O)NC(=O)N3)cc2)NC(=O)[C@H](NC(=O)[C@H](Cc2ccc(Cl)cc2)NC(=O)CCC(C(=O)O)N2CCN(CC(=O)O)CCN(CC(=O)O)CC2)CSSC[C@@H](C(=O)N[C@H](Cc2ccc(O)cc2)C(N)=O)NC1=O (stereo partly drawn) [JR11] ({NODAGA}-[Phe(4-Cl)][dC][Phe(4-NH2)](Dihydroorotyl(S))[dPhe(4-NHCONH2)]KTC[dY]-NH2; disulfide 2-7),Kd,SST2 [1],8.17 nM
same,Kd,SST2 [2],5.35 nM
CCCC[C@H](NC(=O)CCC(C(=O)O)N1CCN(CC(=O)O)CCN(CC(=O)O)CC1)C(=O)N[C@H](C(=O)N[C@@H](CCCCN=[N+]=[N-])C(=O)NCCOCCOCC(=O)N[C@H](Cc1ccccc1)C(=O)N[C@H]1CSSC[C@@H](C(=O)N[C@H](C(=O)O)[C@@H](C)O)NC(=O)[C@H]([C@@H](C)O)NC(=O)[C@H](CCCCN)NC(=O)[C@@H](Cc2c[nH]c3ccccc23)NC(=O)[C@H](Cc2ccc(O)cc2)NC1=O)C(C)C (stereo partly shown) [NES1-TATE],uptake fraction (internalized or not acid releasable radioligand) as percentage of specific total-bound radioligand,MPC cells [3],49 ^d %
CCCC[C@H](NC(=O)c1ccc(CNC(=O)CCC(C(=O)O)N2CCN(CC(=O)O)CCN(CC(=O)O)CC2)cc1)C(=O)N[C@H](C(=O)N[C@@H](CCCCN=[N+]=[N-])C(=O)NCCOCCOCC(=O)N[C@H](Cc1ccccc1)C(=O)N[C@H]1CSSC[C@@H](C(=O)N[C@H](C(=O)O)[C@@H](C)O)NC(=O)[C@H]([C@@H](C)O)NC(=O)[C@H](CCCCN)NC(=O)[C@@H](Cc2c[nH]c3ccccc23)NC(=O)[C@H](Cc2ccc(O)cc2)NC1=O)C(C)C (stereo partly shown) [NES2-TATE],uptake fraction (internalized or not acid releasable radioligand) as percentage of specific total-bound radioligand,MPC cells [3],56 ^d %
same,stability (radioligand remaining stable) after 1 h of incubation with intact MPC cells,[4],≥ 87%
same,stability (radioligand remaining stable) after 1 h of incubation with MPC cell homogenate,[5],≥ 87%
C[C@@H](O)[C@H](NC(=O)[C@@H]1CSSC[C@H](NC(=O)[C@@H](Cc2ccccc2)NC(=O)COCCOCCNC(=O)[C@H](CCCCN=[N+]=[N-])NC(=O)[C@H](Cc2ccccc2)NC(=O)CNC(=O)c2ccc(CNC(=O)CCC(C(=O)O)N3CCN(CC(=O)O)CCN(CC(=O)O)CC3)cc2)C(=O)N[C@@H](Cc2ccc(O)cc2)C(=O)N[C@H](Cc2c[nH]c3ccccc23)C(=O)N[C@@H](CCCCN)C(=O)N[C@@H]([C@@H](C)O)C(=O)N1)C(=O)O (stereo partly shown) [NES3-TATE],uptake fraction (internalized or not acid releasable radioligand) as percentage of specific total-bound radioligand,MPC cells [3],68 ^d %
C[C@@H](O)[C@H](NC(=O)[C@@H]1CSSC[C@H](NC(=O)[C@@H](Cc2ccccc2)NC(=O)COCCOCCNC(=O)[C@H](CCCCN=[N+]=[N-])NC(=O)[C@H](Cc2ccccc2)NC(=O)CNC(=O)[C@@H](CCCNC(=N)N)NC(=O)c2ccc(CNC(=O)CCC(C(=O)O)N3CCN(CC(=O)O)CCN(CC(=O)O)CC3)cc2)C(=O)N[C@@H](Cc2ccc(O)cc2)C(=O)N[C@H](Cc2c[nH]c3ccccc23)C(=O)N[C@@H](CCCCN)C(=O)N[C@@H]([C@@H](C)O)C(=O)N1)C(=O)O (stereo partly shown) [NES4-TATE],uptake fraction (internalized or not acid releasable radioligand) as percentage of specific total-bound radioligand,MPC cells [3],53 ^d %
C[C@@H](O)[C@H](NC(=O)[C@@H]1CSSC[C@H](NC(=O)[C@@H](Cc2ccccc2)NC(=O)COCCOCCNC(=O)[C@H](CCCCn2cc(CCC(=O)N[C@@H](CCCCNC(=O)CCCc3ccc(I)cc3)C(=O)O)nn2)NC(=O)[C@H](Cc2ccccc2)NC(=O)CNC(=O)[C@@H](CCCNC(=N)N)NC(=O)c2ccc(CNC(=O)CCC(C(=O)O)N3CCN(CC(=O)O)CCN(CC(=O)O)CC3)cc2)C(=O)N[C@@H](Cc2ccc(O)cc2)C(=O)N[C@H](Cc2c[nH]c3ccccc23)C(=O)N[C@@H](CCCCN)C(=O)N[C@@H]([C@@H](C)O)C(=O)N1)C(=O)O (stereo partly shown) [NES5-TATE],uptake fraction (internalized or not acid releasable radioligand) as percentage of specific total-bound radioligand,MPC cells [3],62 ^d %
same,stability (radioligand remaining stable) after 1 h of incubation with intact MPC cells,[4],≥ 87%
same,stability (radioligand remaining stable) after 1 h of incubation with MPC cell homogenate,[5],≥ 87%
C#CC[C@H](NC(=O)CCC(C(=O)O)N1CCN(CC(=O)O)CCN(CC(=O)O)CC1)C(=O)NCCOCCOCC(=O)N[C@H](Cc1ccccc1)C(=O)N[C@H]1CSSC[C@@H](C(=O)N[C@H](C(=O)O)[C@@H](C)O)NC(=O)[C@H]([C@@H](C)O)NC(=O)[C@H](CCCCN)NC(=O)[C@@H](Cc2c[nH]c3ccccc23)NC(=O)[C@H](Cc2ccc(O)cc2)NC1=O (stereo partly shown) [Pra-PEG2-TATE],uptake fraction (internalized or not acid releasable radioligand) as percentage of specific total-bound radioligand,MPC cells [6],48%
C[C@@H](O)[C@H](NC(=O)[C@@H]1CSSC[C@H](NC(=O)[C@@H](Cc2ccccc2)NC(=O)COCCOCCNC(=O)[C@H](Cc2cn(CCCCC(=O)N[C@H](CCCCNC(=O)CCCc3ccc(I)cc3)C(=O)O)nn2)NC(=O)CCC(C(=O)O)N2CCN(CC(=O)O)CCN(CC(=O)O)CC2)C(=O)N[C@@H](Cc2ccc(O)cc2)C(=O)N[C@H](Cc2c[nH]c3ccccc23)C(=O)N[C@@H](CCCCN)C(=O)N[C@@H]([C@@H](C)O)C(=O)N1)C(=O)O (stereo partly shown) [cLAB1-TATE],uptake fraction (internalized or not acid releasable radioligand) as percentage of specific total-bound radioligand,MPC cells [6],66%
